According to paper PMC3523284 (Cell metabolism, 2012):

Assays:
Mss51 [1] = biological target: Mss51 (Saccharomyces cerevisiae, UniProt P32335, C85S); assay: difference UV-visible spectroscopy titration; assay type: binding
Mss51 [2] = biological target: T1, Mss51 (Saccharomyces cerevisiae, UniProt P32335); assay: difference UV-visible spectroscopy titration; assay type: binding
T1 sequence (P32335 1-436): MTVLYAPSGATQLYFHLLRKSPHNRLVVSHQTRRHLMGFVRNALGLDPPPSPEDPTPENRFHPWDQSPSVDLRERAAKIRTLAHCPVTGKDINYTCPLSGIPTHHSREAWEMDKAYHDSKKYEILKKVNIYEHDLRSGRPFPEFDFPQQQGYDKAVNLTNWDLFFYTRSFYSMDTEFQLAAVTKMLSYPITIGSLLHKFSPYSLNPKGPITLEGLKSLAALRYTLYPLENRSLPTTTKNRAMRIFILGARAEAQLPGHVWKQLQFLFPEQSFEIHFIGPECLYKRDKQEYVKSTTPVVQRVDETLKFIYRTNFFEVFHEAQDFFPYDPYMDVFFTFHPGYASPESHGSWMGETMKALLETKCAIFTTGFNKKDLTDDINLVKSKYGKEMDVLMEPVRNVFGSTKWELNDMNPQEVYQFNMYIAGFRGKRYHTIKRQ

Chain of Mss51 (Saccharomyces cerevisiae, UniProt P32335, C85S) (P32335 whole entry C85S): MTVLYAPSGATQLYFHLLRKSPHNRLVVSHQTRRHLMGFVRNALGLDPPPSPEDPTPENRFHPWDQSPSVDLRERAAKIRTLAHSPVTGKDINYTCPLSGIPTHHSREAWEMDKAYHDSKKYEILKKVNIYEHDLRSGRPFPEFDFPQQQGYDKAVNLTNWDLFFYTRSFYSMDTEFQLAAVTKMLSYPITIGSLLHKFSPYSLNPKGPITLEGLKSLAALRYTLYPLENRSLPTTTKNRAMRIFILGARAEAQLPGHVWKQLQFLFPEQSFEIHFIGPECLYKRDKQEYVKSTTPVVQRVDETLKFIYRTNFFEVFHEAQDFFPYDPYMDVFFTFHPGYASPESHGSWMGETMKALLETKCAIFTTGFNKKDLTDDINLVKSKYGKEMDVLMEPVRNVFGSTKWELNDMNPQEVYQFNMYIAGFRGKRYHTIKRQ

Which results are given for `C=CC1=C(C)C2=Cc3c(C=C)c(C)c4[n]3[Fe]([Cl])[n]3c(c(C)c(CCC(=O)O)c3=CC3=NC(=C4)C(C)=C3CCC(=O)O)=CC1=N2` [hemin]?
Kd (Mss51 [1]): 324 ± 74 nM; Kd (Mss51 [2]): ~445 nM
